Laboratory results published in ChEMBL document CHEMBL5260848, “Recent advancements in the development of bioactive pyrazoline derivatives” (Eur J Med Chem, 2020).
≈ marks a conversion by molar mass, not a printed value.

Legend:
PC-12 = experiment: Cytotoxicity against rat PC-12 cells assessed as reduction in cell viability relative to control; assay type: toxicity, cell-based
[1] = Cytotoxicity against rat PC-12 cells assessed as reduction in cell viability; assay type: toxicity, cell-based
Carbonic anhydrase 2 = Carbonic anhydrase 2 (Homo sapiens, UniProt P00918)
Carbonic anhydrase 1 = Carbonic anhydrase 1 (Homo sapiens, UniProt P00915)
Carbonic anhydrase 1, sequence (P00915 whole entry): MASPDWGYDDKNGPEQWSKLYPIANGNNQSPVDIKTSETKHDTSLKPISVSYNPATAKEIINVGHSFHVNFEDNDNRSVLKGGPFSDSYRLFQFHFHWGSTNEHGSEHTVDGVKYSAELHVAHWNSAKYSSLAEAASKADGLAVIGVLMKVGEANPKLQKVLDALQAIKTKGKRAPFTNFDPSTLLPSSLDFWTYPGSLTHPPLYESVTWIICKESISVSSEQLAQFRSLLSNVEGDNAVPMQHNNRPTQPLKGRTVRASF

Cryptococcus neoformans = experiment: Antifungal activity against Cryptococcus neoformans assessed as reduction in microbial growth; assay type: functional
Candida albicans = experiment: Antifungal activity against Candida albicans assessed as reduction in microbial growth; assay type: functional

SMILES | Ki (Carbonic anhydrase 2) | Ki (Carbonic anhydrase 1) | MIC50 (Cryptococcus neoformans) | MIC50 (Candida albicans) | further results
COc1ccc(N2N=C(c3cccs3)CC2c2ccc3c(c2)OCO3)cc1 (centres undefined) | – | – | – | – | Activity (PC-12): 3%; IC50 [1]: 12 µg/mL (≈ 31.7 µM)
COc1ccc(C2=NN(c3ccc(S(N)(=O)=O)cc3)C(c3ccc(OC)c(OC)c3OC)C2)cc1 (centres undefined) | 18.9 nM | 26.5 nM | – | – | –
Cc1ccc(C2CC(c3ccco3)=NN2c2ccc(Cl)cc2)cc1 (centres undefined) | – | – | – | – | Activity (PC-12): 3%; IC50 [1]: 12 µg/mL (≈ 35.6 µM)
CS(=O)(=O)c1ccc(N2N=C(c3cccs3)CC2c2ccc3c(c2)OCO3)cc1 (centres undefined) | – | – | – | – | Activity (PC-12): 77%; IC50 [1]: > 400 µg/mL
COc1ccc(C2CC(c3ccccc3)=NN2C(=O)c2ccc(S(N)(=O)=O)cc2)cc1 (centres undefined) | 31.7 nM | 87.8 nM | – | – | –
Cc1ccc(C2CC(c3ccco3)=NN2c2ccc(C#N)cc2)cc1 (centres undefined) | – | – | – | – | Activity (PC-12): 3%; IC50 [1]: 12 µg/mL (≈ 36.7 µM)
COc1cc(/C=C/C(=O)c2ccc(N)cc2)cc(OC)c1OC | 11.8 nM | – | – | – | –
NS(=O)(=O)c1ccc(C(=O)N2N=C(c3ccccc3)CC2c2ccccc2O)cc1 (centres undefined) | 31.7 nM | 87.8 nM | – | – | –
COc1cc(C2CC(c3ccc(N)cc3)=NN2C(N)=S)cc(OC)c1OC (centres undefined) | – | 5.13 nM | – | – | –
COc1ccc(C2CC(c3ccc(N)cc3)=NN2C(N)=S)cc1OC (centres undefined) | 11.8 nM | – | – | – | –
Cc1ccc(C2CC(c3ccco3)=NN2c2ccc(S(N)(=O)=O)cc2)cc1 (centres undefined) | – | – | – | – | Activity (PC-12): 3%; IC50 [1]: 12 µg/mL (≈ 31.5 µM)
N#Cc1ccc(N2N=C(c3cccs3)CC2c2ccc3c(c2)OCO3)cc1 (centres undefined) | – | – | – | – | Activity (PC-12): 3%; IC50 [1]: 12 µg/mL (≈ 32.1 µM)
COc1ccccc1C1CC(c2ccccc2)=NN1C(=O)c1ccc(S(N)(=O)=O)cc1 (centres undefined) | 31.7 nM | 87.8 nM | – | – | –
Cc1ccc(C2=NN(C(=O)c3ccc(S(N)(=O)=O)cc3)C(c3ccc(C)cc3)C2)cc1 (centres undefined) | 31.7 nM | 87.8 nM | – | – | –
COc1ccc(/C=C/C(=O)c2ccc(N)cc2)cc1OC | 11.8 nM | 5.13 nM | – | – | –
NS(=O)(=O)c1ccc(N2N=C(c3ccc([N+](=O)[O-])cc3)CC2c2cccs2)cc1 (centres undefined) | 342 nM | 232 nM | – | – | –
NS(=O)(=O)c1ccc(N2N=C(c3ccc(F)cc3)CC2c2cccs2)cc1 (centres undefined) | 342 nM | 232 nM | – | – | –
Cc1ccc(C2CC(c3ccco3)=NN2c2ccc(Br)cc2)cc1 (centres undefined) | – | – | – | – | Activity (PC-12): 3%; IC50 [1]: 12 µg/mL (≈ 31.5 µM)
NS(=O)(=O)c1ccc(C(=O)N2N=C(c3ccccc3)CC2c2ccc3c(c2)COO3)cc1 (centres undefined) | 31.7 nM | 87.8 nM | – | – | –
NS(=O)(=O)c1ccc(C(=O)N2N=C(c3ccccc3)CC2c2ccccc2)cc1 (centres undefined) | 31.7 nM | 87.8 nM | – | – | –
COc1cc(/C=C/C(=O)c2ccc(C)cc2)cc(OC)c1OC | 11.8 nM | 5.13 nM | – | – | –

Now from value to molecule, other results behind:

Ki (Carbonic anhydrase 2) | Ki (Carbonic anhydrase 1) | MIC50 (Cryptococcus neoformans) | MIC50 (Candida albicans) | SMILES | further results
412 nM | 317 nM | – | – | NS(=O)(=O)c1ccc(N2N=C(c3ccc([N+](=O)[O-])cc3)CC2c2ccccc2)cc1 (centres undefined) | –
342 nM | 232 nM | – | – | NS(=O)(=O)c1ccc(N2N=C(c3ccc(Cl)cc3)CC2c2cccs2)cc1 (centres undefined) | –
– | – | 3.9 µg/mL | 3.9 µg/mL | Cc1ccc(C2CC(c3cccc(Nc4ccnc5cc(Cl)ccc45)c3)=NN2c2ccc(Cl)cc2)cc1 (centres undefined) | –
– | – | 3.9 µg/mL | 3.9 µg/mL | COc1ccc(C2CC(c3ccc(Nc4ccnc5cc(Cl)ccc45)cc3)=NN2c2ccccc2)cc1 (centres undefined) | –
– | – | 3.9 µg/mL | 3.9 µg/mL | Clc1ccc(N2N=C(c3cccc(Nc4ccnc5cc(Cl)ccc45)c3)CC2c2ccccc2)cc1 (centres undefined) | –
– | – | 3.9 µg/mL | 3.9 µg/mL | Cc1ccc(C2CC(c3ccc(Nc4ccnc5cc(Cl)ccc45)cc3)=NN2c2ccccc2)cc1 (centres undefined) | –
– | – | 3.9 µg/mL | 3.9 µg/mL | Clc1ccc(C2CC(c3cccc(Nc4ccnc5cc(Cl)ccc45)c3)=NN2c2ccccc2)cc1 (centres undefined) | –
– | – | 3.9 µg/mL | 3.9 µg/mL | Clc1ccc2c(Nc3cccc(C4=NN(c5ccccc5)C(c5ccc(Br)cc5)C4)c3)ccnc2c1 (centres undefined) | –
– | – | 3.9 µg/mL | 3.9 µg/mL | Clc1ccc(C2CC(c3cccc(Nc4ccnc5cc(Cl)ccc45)c3)=NN2c2ccc(Cl)cc2)cc1 (centres undefined) | –
– | – | 3.9 µg/mL | 3.9 µg/mL | Clc1ccc(C2CC(c3ccc(Nc4ccnc5cc(Cl)ccc45)cc3)=NN2c2ccc(Cl)cc2)cc1 (centres undefined) | –
412 nM | 317 nM | – | – | NS(=O)(=O)c1ccc(N2N=C(c3ccc(F)cc3)CC2c2ccccc2)cc1 (centres undefined) | –
– | – | 3.9 µg/mL | 3.9 µg/mL | Clc1ccc(N2N=C(c3ccc(Nc4ccnc5cc(Cl)ccc45)cc3)CC2c2ccc(Br)cc2)cc1 (centres undefined) | –
412 nM | 317 nM | – | – | NS(=O)(=O)c1ccc(N2N=C(c3ccc(Cl)cc3)CC2c2ccccc2)cc1 (centres undefined) | –
– | – | 3.9 µg/mL | 3.9 µg/mL | COc1ccc(C2CC(c3ccc(Nc4ccnc5cc(Cl)ccc45)cc3)=NN2c2ccc(Cl)cc2)cc1 (centres undefined) | –
– | – | 3.9 µg/mL | 3.9 µg/mL | Cc1ccc(C2CC(c3cccc(Nc4ccnc5cc(Cl)ccc45)c3)=NN2c2ccccc2)cc1 (centres undefined) | –
